Data from article PMC4963535, “Structure-guided development of heterodimer-selective GPCR ligands” (Nature Communications, 2016).
Entries after “also recorded” stand apart in the source; their conditions may differ. Where two headings read alike, the source gives them in different places. Blank lines part the entries; values can stand above or below the molecule they belong to. Non-standard residues stand in square brackets, D forms with d. No end group written: not given here. aminoindane‑type D2R agonist pharmacophore = not defined here; N(4-hydroxyphenethyl)Gly = O=C(O)CNCCc1ccc(O)cc1; biphenyltriazole = not defined here

Columns and labels:
hD3R = target: T1, hD3R (Homo sapiens, UniProt P35462); assay: [3H]spiperone displacement, membranes from CHO cells stably expressing hD3R; format: binding
T1 construct: expressed in transfected cells

hD4.4R = target: T2, hD4.4R (Homo sapiens, UniProt P21917); assay: [3H]spiperone displacement, membranes from CHO cells stably expressing hD4.4R; format: binding
T2 construct: expressed in transfected cells
T2 sequence (P21917 1-419): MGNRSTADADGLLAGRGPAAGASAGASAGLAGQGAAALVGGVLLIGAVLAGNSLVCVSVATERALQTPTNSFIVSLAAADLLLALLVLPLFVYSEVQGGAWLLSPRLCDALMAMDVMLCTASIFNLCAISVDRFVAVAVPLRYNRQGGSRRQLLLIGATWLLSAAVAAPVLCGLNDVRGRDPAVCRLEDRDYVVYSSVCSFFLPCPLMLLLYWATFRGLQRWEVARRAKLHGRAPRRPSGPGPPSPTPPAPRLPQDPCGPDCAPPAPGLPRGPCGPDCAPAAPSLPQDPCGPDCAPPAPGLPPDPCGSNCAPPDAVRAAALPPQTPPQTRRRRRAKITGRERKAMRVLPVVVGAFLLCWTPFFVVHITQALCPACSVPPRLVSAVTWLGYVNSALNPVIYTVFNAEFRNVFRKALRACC

D2LR/NTS1R = D2LR/NTS1R (Homo sapiens, UniProt P14416+P30989); assay: [3H]spiperone displacement, membranes from HEK 293 T cells coexpressing D2LR and NTS1R; settings: D2LR:NTS1R 1:2; mean ± s.e.m.
[1] = target: porcine striatal membranes (D2LR, NTS1R); assay: [3H]spiperone displacement, porcine striatal membranes; format: binding; settings: porcine striatum
hNTS2R = target: T3, hNTS2R (Homo sapiens, UniProt O95665); assay: [3H]NT(8-13) displacement, homogenates from transiently transfected HEK 293T cells, human NTS2R; format: binding
T3 construct: host or cells: HEK 293T

D2SR = target: T4, D2SR (Homo sapiens, UniProt P14416); assay: cAMP BRET assay (CAMYEL biosensor), HEK 293 T cells expressing D2SR; format: cell-based; settings: 10 μM forskolin
T4 construct: expressed in transfected cells; host or cells: HEK 293 T

D2R_D80A/NTS1R = target: T5, D2R_D80A/NTS1R (Homo sapiens, UniProt P14416+P30989, D80A); assay: β-arrestin-2 recruitment (DiscoveRx PathHunter), ProLink-tagged signalling incompetent D2R_D80A coexpressed with NTS1R; format: cell-based
T5 construct: host or cells: HEK 293 stably expressing EA-tagged β-arrestin-2

D2R = target: T6, D2R (Homo sapiens, UniProt P14416); assay: Antagonist effect on quinpirole-mediated inhibition of cAMP accumulation, HEK 293T cells expressing D2R; format: cell-based
T6 construct: expressed in transfected cells; host or cells: HEK 293 T

[2] = target: T7, D2R/NTS1R heterodimer (D2LR and NTS1R coexpressed in HEK 293 T membranes), P14416; assay: monophasic; settings: N-homotyrosine (NhTyr) in place of tyrosine; N-terminus carries a 22-atom polyethylene glycol-based spacer, a biphenyltriazole moiety and a 2-methoxyphenylpiperazine D2R antagonist pharmacophore
[3] = target: T7, D2R/NTS1R heterodimer (D2LR and NTS1R …); assay: +1 uM NT(8-13); settings: N-homotyrosine (NhTyr) in place of tyrosine

T1 sequence (P35462 whole entry): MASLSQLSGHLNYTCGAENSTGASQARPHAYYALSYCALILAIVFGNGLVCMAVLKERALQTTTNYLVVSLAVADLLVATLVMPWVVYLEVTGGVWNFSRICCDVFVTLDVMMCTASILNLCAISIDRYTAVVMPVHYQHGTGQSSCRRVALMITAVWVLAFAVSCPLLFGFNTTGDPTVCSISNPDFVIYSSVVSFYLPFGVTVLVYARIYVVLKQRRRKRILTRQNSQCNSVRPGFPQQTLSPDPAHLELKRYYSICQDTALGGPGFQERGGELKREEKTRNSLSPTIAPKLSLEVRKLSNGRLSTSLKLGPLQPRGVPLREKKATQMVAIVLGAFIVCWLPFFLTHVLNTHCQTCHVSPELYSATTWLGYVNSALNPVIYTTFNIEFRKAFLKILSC
T6 sequence (P14416 1-414 isoform P14416-2): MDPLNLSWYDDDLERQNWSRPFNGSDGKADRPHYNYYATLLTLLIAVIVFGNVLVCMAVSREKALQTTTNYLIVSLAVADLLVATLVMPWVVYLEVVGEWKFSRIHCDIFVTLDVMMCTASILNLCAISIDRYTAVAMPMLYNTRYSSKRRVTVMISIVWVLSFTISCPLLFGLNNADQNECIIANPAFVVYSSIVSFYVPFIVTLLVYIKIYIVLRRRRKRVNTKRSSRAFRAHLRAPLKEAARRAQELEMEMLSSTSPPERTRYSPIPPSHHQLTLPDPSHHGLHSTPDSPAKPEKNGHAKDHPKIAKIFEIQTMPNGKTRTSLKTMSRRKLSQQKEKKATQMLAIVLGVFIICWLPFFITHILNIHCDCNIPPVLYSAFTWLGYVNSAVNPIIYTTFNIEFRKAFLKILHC
Chain of D2LR/NTS1R (P14416 whole entry): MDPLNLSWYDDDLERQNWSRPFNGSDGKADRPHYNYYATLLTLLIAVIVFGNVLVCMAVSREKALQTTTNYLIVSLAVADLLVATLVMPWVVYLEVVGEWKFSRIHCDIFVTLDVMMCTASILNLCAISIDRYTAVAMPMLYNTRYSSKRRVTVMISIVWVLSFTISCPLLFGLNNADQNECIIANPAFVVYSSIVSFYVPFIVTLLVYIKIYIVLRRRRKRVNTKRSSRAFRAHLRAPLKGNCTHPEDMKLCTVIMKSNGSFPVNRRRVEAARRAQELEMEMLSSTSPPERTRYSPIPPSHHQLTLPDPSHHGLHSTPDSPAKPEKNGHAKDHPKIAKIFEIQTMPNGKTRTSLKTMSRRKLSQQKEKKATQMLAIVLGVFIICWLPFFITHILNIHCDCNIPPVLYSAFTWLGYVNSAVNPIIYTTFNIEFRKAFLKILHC
Chain of D2LR/NTS1R (P30989 whole entry): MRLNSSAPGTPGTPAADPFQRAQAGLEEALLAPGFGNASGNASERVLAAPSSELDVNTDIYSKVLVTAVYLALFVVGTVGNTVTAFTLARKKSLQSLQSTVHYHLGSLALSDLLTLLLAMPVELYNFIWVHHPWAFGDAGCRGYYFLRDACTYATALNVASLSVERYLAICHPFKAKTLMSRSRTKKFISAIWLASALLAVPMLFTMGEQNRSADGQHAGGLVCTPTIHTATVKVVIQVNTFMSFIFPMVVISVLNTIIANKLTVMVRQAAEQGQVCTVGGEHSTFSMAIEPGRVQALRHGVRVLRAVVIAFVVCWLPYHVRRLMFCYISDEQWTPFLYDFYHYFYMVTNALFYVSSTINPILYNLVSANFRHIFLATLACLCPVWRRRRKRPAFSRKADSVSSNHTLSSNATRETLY
T7 sequence (P14416 whole entry, chain 1 of 2): as the sequence (P14416 whole entry) above
T7 sequence (P30989 whole entry, chain 2 of 2, further chain): as the sequence (P30989 whole entry) above
T3 sequence (O95665 whole entry): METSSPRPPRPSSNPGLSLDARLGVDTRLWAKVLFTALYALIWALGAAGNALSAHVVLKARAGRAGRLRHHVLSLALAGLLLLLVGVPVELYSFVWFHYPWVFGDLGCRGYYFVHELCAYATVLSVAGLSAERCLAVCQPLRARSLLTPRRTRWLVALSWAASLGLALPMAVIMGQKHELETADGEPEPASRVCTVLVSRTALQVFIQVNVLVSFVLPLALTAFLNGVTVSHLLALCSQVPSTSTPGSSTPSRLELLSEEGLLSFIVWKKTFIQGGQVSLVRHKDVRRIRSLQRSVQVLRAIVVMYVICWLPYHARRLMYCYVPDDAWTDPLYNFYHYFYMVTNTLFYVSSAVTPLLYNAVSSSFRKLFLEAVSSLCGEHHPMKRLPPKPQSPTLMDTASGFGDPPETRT
T4 sequence (P14416 1-414 isoform P14416-2): as the sequence (P14416 1-414 isoform P14416-2) above
T5 sequence (P14416 1-414 isoform P14416-2 D80A): as the sequence (P14416 1-414 isoform P14416-2) above, with D80A counted along it
T5 sequence (P30989 whole entry): as the sequence (P30989 whole entry) above

Molecule: CCc1cc(Cl)c(OC)c(C(=O)NC[C@@H]2C[C@@H](OCCCCc3cn(-c4ccc(-c5ccc(C(=O)NCCOCCOCCOCCOCCOCCOCCC(=O)NCCOCCOCCOCCOCCOCCOCCC(=O)NCCOCCOCCOCCOCCOCCOCCC(=O)NCCOCCOCCOCCOCCOCCOCCC(=O)N[C@@H](CCCNC(=N)N)C(=O)N[C@@H](CCCNC(=N)N)C(=O)N6CCC[C@H]6C(=O)N[C@@H](Cc6ccc(O)cc6)C(=O)N[C@H](C(=O)N[C@@H](CC(C)C)C(=O)O)[C@@H](C)CC)cc5)cc4)nn3)CN2CC)c1O [1d]
Ki (hD3R): 1.6 ± 0.4 nM
Ki (hD4.4R): 440 ± 190 nM
Fraction high (fraction representing the high-affinity binding site) (D2LR/NTS1R): 51 ± 5%

Molecule: CCCN(CCCCc1cn(-c2ccc(-c3ccc(C(=O)NCCOCCOCCOCCOCCOCCOCCC(=O)NCCOCCOCCOCCOCCOCCOCCC(=O)N[C@@H](CCCNC(=N)N)C(=O)N[C@@H](CCCNC(=N)N)C(=O)N4CCC[C@H]4C(=O)N(CCc4ccc(O)cc4)CC(=O)N[C@H](C(=O)N[C@@H](CC(C)C)C(=O)O)[C@@H](C)CC)cc3)cc2)nn1)C1Cc2ccccc2C1 [3f]
Ki ([1]; read-out: Ki (monophasic), striatal membranes, absence of NT(8-13)): 28 ± 16 nM
Ki ([1]; read-out: Ki in the presence of […] μM NT(8-13), striatal membranes, monophasic): 29 ± 5 nM
Ki (hD3R): 1.1 ± 0.1 nM
Ki (hD4.4R): 71 ± 4 nM
Ki (hNTS2R): 20 nM

Molecule: CCc1cc(Cl)c(OC)c(C(=O)NC[C@@H]2C[C@@H](OCCCCc3cn(-c4ccc(-c5ccc(C(=O)NCCOCCOCCOCCOCCOCCOCCC(=O)NCCOCCOCCOCCOCCOCCOCCC(=O)NCCOCCOCCOCCOCCOCCOCCC(=O)N[C@@H](CCCNC(=N)N)C(=O)N[C@@H](CCCNC(=N)N)C(=O)N6CCC[C@H]6C(=O)N[C@@H](Cc6ccc(O)cc6)C(=O)N[C@H](C(=O)N[C@@H](CC(C)C)C(=O)O)[C@@H](C)CC)cc5)cc4)nn3)CN2CC)c1O [1c]
Ki (hD4.4R): 420 ± 100 nM
Fraction high (fraction representing the high-affinity binding site) (D2LR/NTS1R): 66 ± 5%

Molecule: CCCN(CCCCc1cn(-c2ccc(-c3ccc(C(=O)NCCOCCOCCOCCOCCOCCOCCC(=O)NCCOCCOCCOCCOCCOCCOCCC(=O)NCCOCCOCCOCCOCCOCCOCCC(=O)N[C@@H](CCCNC(=N)N)C(=O)N[C@@H](CCCNC(=N)N)C(=O)N4CCC[C@H]4C(=O)N[C@@H](Cc4ccc(O)cc4)C(=O)N[C@H](C(=O)N[C@@H](CC(C)C)C(=O)O)[C@@H](C)CC)cc3)cc2)nn1)C1Cc2ccccc2C1 [3c]
Ki (hD4.4R): 80 ± 26 nM
effect on forskolin-induced cAMP accumulation, cells expressing D2R only (in words) (D2SR): stimulates D2R similar to quinpirole
Fraction high (fraction representing the high-affinity binding site) (D2LR/NTS1R): 50 ± 4%

Molecule: CC[C@H](C)[C@H](NC(=O)[C@H](Cc1ccc(O)cc1)NC(=O)[C@@H]1CCCN1C(=O)[C@H](CCCNC(=N)N)NC(=O)[C@H](CCCNC(=N)N)NC(=O)CCOCCOCCOCCOCCOCCOCCNC(=O)CCOCCOCCOCCOCCOCCOCCNC(=O)CCOCCOCCOCCOCCOCCOCCNC(=O)c1ccc(-c2ccc(-n3cc(CCCCN4CCN(c5ccccc5OC)CC4)nn3)cc2)cc1)C(=O)N[C@@H](CC(C)C)C(=O)O [2c]
Ki (hD4.4R): 430 ± 220 nM
effect on forskolin-induced cAMP accumulation, cells expressing D2R only (in words) (D2SR): only weakly activates D2R
concentration of maximum effect (bell-shaped curve), D2R_D80A/NTS1R (D2R_D80A/NTS1R): 300 nM
Fraction high (fraction representing the high-affinity binding site) (D2LR/NTS1R): 61 ± 2%

IC50 (D2R): 3.1 nM
decrease of the basal response (inverse agonist effect on basal cAMP level) (D2R): 22%
Molecule: CCc1cc(Cl)c(OC)c(C(=O)NC[C@@H]2CCCN2CC)c1O [eticlopride, reference compound]
antagonist behaviour at D2R (in words) (D2R): inverse agonists; also recorded: inverse agonist effect

Molecule: CC[C@H](C)[C@H](NC(=O)[C@H](Cc1ccc(O)cc1)NC(=O)[C@@H]1CCCN1C(=O)[C@H](CCCNC(=N)N)NC(=O)[C@H](CCCNC(=N)N)NC(=O)CCOCCOCCOCCOCCOCCOCCNC(=O)CCOCCOCCOCCOCCOCCOCCNC(=O)CCOCCOCCOCCOCCOCCOCCNC(=O)CCOCCOCCOCCOCCOCCOCCNC(=O)c1ccc(-c2ccc(-n3cc(CCCCN4CCN(c5ccccc5OC)CC4)nn3)cc2)cc1)C(=O)N[C@@H](CC(C)C)C(=O)O [2d]
Ki (hD4.4R): 370 ± 50 nM
Fraction high (fraction representing the high-affinity binding site) (D2LR/NTS1R): 62 ± 3%

Molecule: CC[C@H](C)[C@H](NC(=O)CN(CCc1ccc(O)cc1)C(=O)[C@@H]1CCCN1C(=O)[C@H](CCCNC(=N)N)NC(=O)[C@H](CCCNC(=N)N)NC(=O)CCOCCOCCOCCOCCOCCOCCNC(=O)CCOCCOCCOCCOCCOCCOCCNC(=O)c1ccc(-c2ccc(-n3cc(CCCCN4CCN(c5ccccc5OC)CC4)nn3)cc2)cc1)C(=O)N[C@@H](CC(C)C)C(=O)O [2f]
Ki (hD4.4R): 260 ± 170 nM

Molecule: CCCN(CCCCc1cn(-c2ccc(-c3ccc(C(=O)NCCOCCOCCOCCOCCOCCOCCC(=O)N[C@@H](CCCNC(=N)N)C(=O)N[C@@H](CCCNC(=N)N)C(=O)N4CCC[C@H]4C(=O)N[C@@H](Cc4ccc(O)cc4)C(=O)N[C@H](C(=O)N[C@@H](CC(C)C)C(=O)O)[C@@H](C)CC)cc3)cc2)nn1)C1Cc2ccccc2C1 [3a]
Ki (hD4.4R): 25 ± 10 nM

Molecule: CC[C@H](C)[C@H](NC(=O)[C@H](Cc1ccc(O)cc1)NC(=O)[C@@H]1CCCN1C(=O)[C@H](CCCNC(=N)N)NC(=O)[C@H](CCCNC(=N)N)NC(=O)CCOCCOCCOCCOCCOCCOCCNC(=O)c1ccc(-c2ccc(-n3cc(CCCCN4CCN(c5ccccc5OC)CC4)nn3)cc2)cc1)C(=O)N[C@@H](CC(C)C)C(=O)O [2a]
Ki (hD3R): 2.7 ± 0.1 nM
Ki (hD4.4R): 62 ± 4 nM

Molecule: CCc1cc(Cl)c(OC)c(C(=O)NC[C@@H]2C[C@@H](OCCCCc3cn(-c4ccc(-c5ccc(C(=O)NCCOCCOCCOCCOCCOCCOCCC(=O)N[C@@H](CCCNC(=N)N)C(=O)N[C@@H](CCCNC(=N)N)C(=O)N6CCC[C@H]6C(=O)N[C@@H](Cc6ccc(O)cc6)C(=O)N[C@H](C(=O)N[C@@H](CC(C)C)C(=O)O)[C@@H](C)CC)cc5)cc4)nn3)CN2CC)c1O [1a]
Ki (hD4.4R): 470 ± 420 nM

Molecule: CCCN(CCCCc1cn(-c2ccc(-c3ccc(C(=O)NCCOCCOCCOCCOCCOCCOCCC(=O)NCCOCCOCCOCCOCCOCCOCCC(=O)NCCOCCOCCOCCOCCOCCOCCC(=O)NCCOCCOCCOCCOCCOCCOCCC(=O)N[C@@H](CCCNC(=N)N)C(=O)N[C@@H](CCCNC(=N)N)C(=O)N4CCC[C@H]4C(=O)N[C@@H](Cc4ccc(O)cc4)C(=O)N[C@H](C(=O)N[C@@H](CC(C)C)C(=O)O)[C@@H](C)CC)cc3)cc2)nn1)C1Cc2ccccc2C1 [3d]
Ki (hD4.4R): 180 ± 40 nM
Fraction high (fraction representing the high-affinity binding site) (D2LR/NTS1R): 53 ± 6%

Molecule: CC[C@H](C)[C@H](NC(=O)CN(CCc1ccc(O)cc1)C(=O)[C@@H]1CCCN1C(=O)[C@H](CCCNC(=N)N)NC(=O)[C@H](CCCNC(=N)N)NC(=O)CCOCCOCCOCCOCCOCCOCCNC(=O)c1ccc(-c2ccc(-n3cc(CCCCN4CCN(c5ccccc5OC)CC4)nn3)cc2)cc1)C(=O)N[C@@H](CC(C)C)C(=O)O [2e]
Ki (hD3R): 5.8 ± 1.3 nM
Ki (hNTS2R): 20 nM

Molecule: CCc1cc(Cl)c(OC)c(C(=O)NC[C@@H]2C[C@@H](OCCCCc3cn(-c4ccc(-c5ccc(C(=O)NCCOCCOCCOCCOCCOCCOCCC(=O)NCCOCCOCCOCCOCCOCCOCCC(=O)N[C@@H](CCCNC(=N)N)C(=O)N[C@@H](CCCNC(=N)N)C(=O)N6CCC[C@H]6C(=O)N[C@@H](Cc6ccc(O)cc6)C(=O)N[C@H](C(=O)N[C@@H](CC(C)C)C(=O)O)[C@@H](C)CC)cc5)cc4)nn3)CN2CC)c1O [1b]
Ki (hD4.4R): 850 ± 750 nM
antagonist behaviour at D2R (in words) (D2R; 10 nM quinpirole): inverse agonists; also recorded: inverse agonist effect
decrease of the basal response (inverse agonist effect on basal cAMP level) (D2R; 10 nM quinpirole): 32%
Fraction high (fraction representing the high-affinity binding site) (D2LR/NTS1R): 31 ± 6%

Ki [2]: 30 nM
Ki ([3]; N-terminus carries a 22-atom polyethylene glycol-based spacer, a biphenyltriazole moiety and a 2-methoxyphenylpiperazine D2R antagonist pharmacophore): 96 nM
B1: bivalent control compound 2e (peptide)
chain: {2‑methoxyphenylpiperazine D2R antagonist pharmacophore-biphenyltriazole-PEG spacer 22‑atom}-RRP[N(4-hydroxyphenethyl)Gly]IL
modifications: reading uncertain

Ki ([3]; N-terminus carries a 22-atom polyethylene glycol-based spacer, a biphenyltriazole moiety and an aminoindane-type D2R agonist pharmacophore): 59 nM
B2: bivalent control compound 3e (peptide)
chain: {aminoindane‑type D2R agonist pharmacophore-biphenyltriazole-PEG spacer 22‑atom}-RRP[N(4-hydroxyphenethyl)Gly]IL
modifications: reading uncertain

Ki ([3]; N-terminus carries a 44-atom polyethylene glycol-based spacer, a biphenyltriazole moiety and a 2-methoxyphenylpiperazine D2R antagonist pharmacophore): 200 nM
B3: bivalent control compound 2f (peptide)
chain: {2‑methoxyphenylpiperazine D2R antagonist pharmacophore-biphenyltriazole-PEG spacer 44‑atom}-RRP[N(4-hydroxyphenethyl)Gly]IL
modifications: reading uncertain
